pIC50: −log10 of the molar value. Where a name gives a salt, the structure may show the parent alone.
Biological target: T1, Monoamine oxidase B (MAO-B) (Rattus norvegicus, UniProt P19643)
T1 construct: Whole rat brains were homogenized in a 10-fold volume of ice cooled 0.32 mM sucrose solution; from tissue; host or cells: whole rat brain homogenate
T1 sequence (P19643 1-520): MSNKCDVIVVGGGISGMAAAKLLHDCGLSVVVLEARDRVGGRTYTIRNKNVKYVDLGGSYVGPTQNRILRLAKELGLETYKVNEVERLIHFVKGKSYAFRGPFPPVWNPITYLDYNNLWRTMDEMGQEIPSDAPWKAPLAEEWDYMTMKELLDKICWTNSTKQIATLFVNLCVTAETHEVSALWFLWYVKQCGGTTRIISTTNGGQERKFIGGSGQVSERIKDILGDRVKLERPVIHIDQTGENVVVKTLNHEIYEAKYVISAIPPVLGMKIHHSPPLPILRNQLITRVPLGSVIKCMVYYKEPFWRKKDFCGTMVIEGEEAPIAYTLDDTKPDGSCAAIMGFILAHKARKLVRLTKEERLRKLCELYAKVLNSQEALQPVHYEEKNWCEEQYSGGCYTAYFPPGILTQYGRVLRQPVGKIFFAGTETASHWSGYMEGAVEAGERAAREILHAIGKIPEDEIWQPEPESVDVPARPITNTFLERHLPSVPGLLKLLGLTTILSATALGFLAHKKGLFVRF
Assay: Monoamine oxidase B (MAO-B) inhibitory activity
Assay type: biochemical
Conditions: not given
Method: Monoamine oxidase B (MAO-B) inhibitory activity
Whole rat brains were homogenized in a 10-fold volume of ice cooled […] sucrose solution and diluted with a 10-fold volume of 10 mM phosphate buffer (pH 7.4). To 90 μl of this enzyme specimen, 1 μl of the test drug solution was added, followed by 10 minutes of incubation at 37° C. To the mixture, 10 μM of 14C-phenylethylamine was added, followed by 5 minutes of incubation at 37° C. After the reaction was stopped by the addition of 20 μl of 3M hydrochloric acid, 1 ml of water-saturated toluene-ethyl acetate (1:1) was added. The radioactivity of the metabolite migrated in the organic layer was measured by the liquid scintillation method.

Question: With `CCCN1CCCCC12CCc1cc(OCc3ccsc3)ccc1C2` (stereo not drawn) [Example 9-45, 3,4-Dihydro-1'-propyl-6-(3-thienylmethoxy)spiro[naphthalene-2(1H),2'-piperidine] hydrochloride] as the compound, how does the pIC50 read?
Answer: 7.22

System: 45Ca2+ uptake
Assay: 45Ca2+ uptake inhibition experiments (veratrine-stimulated, rat cerebral cortex crude synaptosome fraction)
Assay type: biochemical
Conditions: stimulated by 30 μM veratrine, rat cerebral cortex synaptosomes
Method: ^45 Ca^2+ uptake inhibition experiments
Rat cerebral cortex was homogenized with a 10-fold volume of 0.32M sucrose solution to yield a crude synaptosome fraction (100×g for 10 minutes, 12,000×g for 20 minutes). This fraction was homogenized in Tris buffer [neutralized with 132 mM sodium chloride, 5 mM potassium chloride, 1.3 mM magnesium chloride, 1.2 mM sodium dihydrogen phosphate, 1.2 mM calcium chloride, 10 mM glucose and 20 mM Tris base, saturated with a mixed gas (95% oxygen and 5% carbon dioxide)]. To 900 μl of this suspension, a DMSO solution (10 μl ) of the test drug was added, followed by 10 minutes of incubation at 37° C. 100 μl (final concentration 30μM) of a veratrine solution (containing 0.18 μci ^45 Ca^2+) was then added, followed by 10 minutes of incubation at 37° C. Subsequently, the reaction mixture was quenched by the addition of 4 ml of an ice cooled EGTA solution (120 mM sodium chloride, 5 mM potassium chloride, 5 mM EGTA, pH 7.5), and subjected to aspiration filtration through a GF/B filter; the filter was washed with two 4 ml portions of a washing solution (132 mM sodium chloride, 5 mM potassium chloride, 1.3 mM magnesium chloride, 1.2 mM calcium chloride, 20 mM Tris base, pH 7.5). The radioactivity on the filter was measured by the liquid scintillation method.
^45 Ca^2+ uptake suppression rates were calculated as follows: [formula]
^45 Ca^2+ uptake stimulated by 30 μM veratrine for 10 minutes in the presence of test drug
B: ^45 Ca^2+ uptake in the absence of veratrine and in the presence of test drug
C: ^45 Ca^2 + uptake stimulated by 30 μM veratrine for 10 minutes in the absence of test drug
D: ^45 Ca^2 + uptake in the absence of veratrine and test drug

Question: How did the “45Ca Uptake Inhibitory Activity (% inhibition at 10 μM)” value turn out when `COc1ccc2c(c1)CCC1(CCCCN1CCCc1ccccc1)C2` (stereo not drawn) [Example 5-9, 3,4-Dihydro-6-methoxy-1'-(3-phenylpropyl)spiro[naphthalene-(1H),2'-piperidine] hydrochloride] was run?
Answer: 92%

Question: With `COc1ccc2c(c1)CCC1(CCCCN1CCOc1ccccc1)C2` (stereo not drawn) [Example 5-10, 3,4-Dihydro-6-methoxy-1'-(2-phenoxyethyl)spiro[naphthalene-(1H),2'-piperidine] hydrochloride] as the compound, how does the “45Ca Uptake Inhibitory Activity (% inhibition at 10 μM)” value read?
Answer: 88%

Question: How did the “45Ca Uptake Inhibitory Activity (% inhibition at 10 μM)” value turn out when `COc1ccc2c(c1)CCC1(CCCCN1CCCC1CCN(Cc3ccccc3)CC1)C2.Cl.Cl` (stereo not drawn) [Example 5-14, 3,4-Dihydro-6-methoxy-1'-[3-(1-phenylmethylpiperidin-4yl)propyl]spiro[naphthalene-2(1H),2'-piperidine] dihydrochloride] was run?
Answer: 74%

Question: With `COc1cccc(N2CCN(CCN3CCCCC34CCc3cc(OC)ccc3C4)CC2)c1.Cl.Cl` (stereo not drawn) [Example 7-1, 3,4-Dihydro-6-methoxy-1'-[2-(4-(3-methoxyphenyl)piperazine-1-yl)ethyl]spiro[naphthalene-2(1H),2'-piperidine] dihydrochloride] as the compound, how does the “45Ca Uptake Inhibitory Activity (% inhibition at 10 μM)” value read?
Answer: 90%

Question: How did the “45Ca Uptake Inhibitory Activity (% inhibition at 10 μM)” value turn out when `COc1ccc2c(c1)CCC1(CCCCN1CCN1CCN(c3ccccc3Cl)CC1)C2.Cl.Cl` (stereo not drawn) [Example 7-3, 1'-[2-(4-(2-Chlorophenyl)piperazine-1-yl)ethyl]-3,4-dihydro-6-methoxyspiro[naphthalene-2(1H),2'-piperidine] dihydrochloride] was run?
Answer: 95%

Question: For `COc1ccc2c(c1)CCC1(CCCCN1CCN1CCN(c3ccc(F)cc3)CC1)C2` (stereo not drawn) [Example 7-5, 1'-[2-(4-(4-Fluorophenyl)piperazine-1-yl)ethyl]-3,4-dihydro-6-methoxyspiro[naphthalene-2(1H),2'-piperidine]dihydrochloride], which “45Ca Uptake Inhibitory Activity (% inhibition at 10 μM)” value is on record?
Answer: 87%

Question: For `COc1ccc2c(c1)CCC1(CCCCN1CCN1CCN(c3cccc(C(F)(F)F)c3)CC1)C2.Cl.Cl` (stereo not drawn) [Example 7-6, 1'-[2-(4-(3-Trifluoromethylphenyl)piperazine-1-yl)ethyl]-3,4-dihydro-6-methoxyspiro[naphthalene-2(1H),2'-piperidine] dihydrochloride], which “45Ca Uptake Inhibitory Activity (% inhibition at 10 μM)” value is on record?
Answer: 106%

Question: With `COc1ccc2c(c1)CCC1(CCCCN1CCN1CCC(c3ccccc3)CC1)C2.Cl.Cl` (stereo not drawn) [Example 7-9, 3,4-Dihydro-6-methoxy-1'-[2-(4-phenylpiperidine-1-yl)ethyl]spiro[naphthalene-2(1H),2'-piperidine] dihydrochloride] as the compound, how does the “45Ca Uptake Inhibitory Activity (% inhibition at 10 μM)” value read?
Answer: 109%

Source: US5591849A, “Spiro[naphthalene-2(1H),2'-piperidine] and their use” (Takeda Chemical Industries, Ltd., priority 1994, dated 1997)
